Common to all, as to assay type: cell-based
Series [1] concerns A. baumannii R674. Kind of series: Chequerboard combination efficacy of adjuvant with antibiotics. The protocol:
(§1) All the solvents were of reagent grade, which were distilled and dried before its use. All the reagents were purchased from Sigma-Aldrich, Alfa-Aesar, S.D. Fine, Avra and Spectrochem, and were used without further purification. Analytical thin layer chromatography (TLC) was performed on E. Merck TLC plates pre-coated with silica gel 60 F254 and visualization was carried out using UV light and Iodine. Column chromatography was performed on silica gel (60-120 mesh) using different ratio of chloroform and methanol solvent system. Nuclear magnetic resonance spectra were recorded on Bruker (AV-400) 400 MHz spectrometer in deuterated solvents. Mass spectra were obtained using 6538-UHD Accurate mass Q-TOF LC-MS instrument. For optical density measurement during bacteriology experiments, Tecan Infinite Pro series M200 Microplate Reader was used. Bacterial strains, A. baumannii (R674), P. aeruginosa (R590), E. coli (R3336) and K. pneumoniae (R3934) were used for the studies.
(§2) The combination efficacy with antibiotics from different classes and individual antibacterial activity of the synthesized adjuvants was evaluated against the above mentioned MDR and NDM-1 strains of Gram-negative bacteria. All the bacteria were grown in peptone. The bacterial samples were freeze dried and stored at −80° C. 3 μl of these stocks were added to 3 mL of peptone and the culture was grown for 6 h at 37° C. prior to the experiments.
(§3) All synthesized compounds were assayed for their antibacterial activity in combination with antibiotics in a modified chequerboard micro-dilution broth format. Stock solutions were made by serially diluting the compounds using autoclaved millipore water. The bacterial freeze dried stock samples were stored at −80° C. About 3 μL of these stocks were added to about 3 mL of the respective broth and the culture was grown for about 6 h at about 37° C. with prior to the experiments. This 6 h grown culture gives about 10^8 cfu/mL in case of A. baumannii R674, P. aeruginosa R590, E. coli R3336 and K. pneumoniae R3934 which were determined by spread plating method. This 6 h grown culture was diluted to give effective cell concentration of 10^5 cfu/mL, and then used for the chequerboard assay. Adjuvants and antibiotics were serially diluted in two-fold, in sterile millipore water. 25 μL of these serial dilutions of the antibiotics and 25 μL of compounds were added to the wells of 96 well plate followed by the addition of about 150 μL of bacterial solution (˜10^5 cfu/mL). The plates were then incubated at about 37° C., 150 rpm in the incubator and O.D at 600 nm was recorded at 24 h using TECAN (Infinite series, M200 pro) Plate Reader. The wells with similar OD as the media control contained the required concentration of the antibiotic and adjuvant for antibacterial efficacy. The potentiation ability of the adjuvants was determined by calculating the potentiation factor and the Fractional Inhibitory concentration (FIC) index. Fractional Inhibitory Concentration (FIC) is expressed as, FIC=[X]/MICX, where [X] is the lowest inhibitory concentration of antibiotic in the presence of the adjuvant. Whereas FIC index is expressed as, FICI=FICantibiotic+FICadjuvant. The values of FIC index give an insight about the nature of the combination. Potentiation factor which means fold-reduction in the MIC of the antibiotic, when used in combination with the adjuvant was also determined. Potentiation factor=[Minimum inhibitory concentration (MIC) of antibiotic in absence of adjuvant]/[MIC of antibiotic in presence of adjuvant]. […] The combination efficacies of adjuvants with various antibiotics are furnished in Table 1. It should be noted that various other resistant strains of bacteria (Gram-positive and Gram-negative) can be tested with a number of other antibiotics to check the potentiation capacity of the adjuvants.

The next series deals with human RBCs. Kind of series: Haemolytic activity. Conditions: concentration at which 50% of human blood cells are lysed; 1 h at 37° C. The method, then: Erythrocytes were isolated from freshly drawn, heparanized human blood and re-suspended to 5 vol % in PBS (pH 7.4). In a 96-well microtiter plate, 150 μl of erythrocyte suspension was added to 50 μl of serially diluted compound. Two controls were made, one without compound and other with 50 μl of 1 vol % solution of Triton X-100. The plate was incubated for 1 h at 37° C. The plate was then centrifuged at 3,500 rpm for 5 min, 100 μl of the supernatant from each well was transferred to a fresh 96-well microtiter plate, and A540 was measured. Percentage of hemolysis was determined as (A−A0)/(Atotal−A0)×100, where A is the absorbance of the test well, A0 the absorbance of the negative controls (without compound), and Atotal the absorbance of 100% hemolysis wells (with Triton X-100), all at 540 nm.
Toxicity studies of the compounds were done on freshly drawn human RBCs. Toxicity of the compounds were defined by their HC50 values (Table 2), i.e. the concentration of compound at which 50% of the blood cells are lysed.

In series [2] the test system is A. baumannii R674. Kind of series: Individual antibacterial activity (MIC) of adjuvants. Particulars: adjuvant alone; A. baumannii R674. The protocol:
as §2, §3

Series [3] has as its system P. aeruginosa R590. Kind of series: Chequerboard combination efficacy of adjuvant with antibiotics. The protocol: as §1, §2, §3
In series [4] the test system is P. aeruginosa R590. Kind of series: Individual antibacterial activity (MIC) of adjuvants. Particulars: adjuvant alone; P. aeruginosa R590. The method, then: as §2, §3
The mark [5] stands for this setting: antibiotic Rifampicin, P. aeruginosa R590.
Setting [6] is: antibiotic Tetracycline, P. aeruginosa R590.

Each structure is given as a SMILES string. Values joined by “and” are separate entries in the source; they are usually repeats but may differ in a detail not shown here. Equal entries are not always repeated. Where two headings read alike, the source gives them in different places. A value given as a limit tells only on which side of the number the result lay.

A word on the HC50: it is the concentration that lyses half of the red blood cells.

`NCCCN(CCCN)C(=O)Cc1ccccc1.O=C(O)C(F)(F)F.O=C(O)C(F)(F)F` [Compound 1, N,N-bis((3-amino)propyl)phenyl ethanamide bis(trifluoroacetate)]: in the series with A. baumannii R674 [1] (antibiotic Rifampicin), the FICI is listed as below 0.75, the “MIC of antibiotic in presence of adjuvant” value (shortened to “MIC of antibiotic”) is 32 µg/mL and the Potentiation factor came out at 2. For the same compound, in the series with A. baumannii R674 [1] (antibiotic Tetracycline), the FICI was below 0.5, the “MIC of antibiotic” value is 64 µg/mL and the Potentiation factor is 2. The HC50 in the series with human RBCs is above 1024 µg/mL. In addition, the “MIC against clinical isolates of bacteria” value (from here on “MIC … of bacteria”) in the series with A. baumannii R674 [2] is above 512 µg/mL.

With `NCCCN(CCCN)C(=O)Cc1cccc2ccccc12.O=C(O)C(F)(F)F.O=C(O)C(F)(F)F` [Compound 2, N,N-bis((3-amino)propyl)naphthyl ethanamide bis(trifluoroacetate)], the FICI in the series with P. aeruginosa R590 [3] (setting [5]) is reported as below 0.375; with P. aeruginosa R590 [3] (setting [6]) it was below 0.5; with A. baumannii R674 [1] (antibiotic Rifampicin), below 0.375; in the series with A. baumannii R674 [1] (antibiotic Tetracycline) it was below 0.625. Besides, the “MIC of antibiotic” value in the series with P. aeruginosa R590 [3] (setting [5]) came out at 16 µg/mL; in the series with P. aeruginosa R590 [3] (setting [6]), 64 µg/mL; in the series with A. baumannii R674 [1] (antibiotic Rifampicin) it was 8 µg/mL; in the series with A. baumannii R674 [1] (antibiotic Tetracycline) it was 64 µg/mL. The Potentiation factor stood at 8 in the series with P. aeruginosa R590 [3] (setting [5]), 4 in the series with P. aeruginosa R590 [3] (setting [6]), 8 in the series on A. baumannii R674 [1] (antibiotic Rifampicin) and 2 in the series on A. baumannii R674 [1] (antibiotic Tetracycline). Further, the HC50 in the series on human RBCs was above 1024 µg/mL. The “MIC … of bacteria” value in the series on P. aeruginosa R590 [4] and in the series on A. baumannii R674 [2] was above 512 µg/mL in each case.

As to `NCCCN(CCCN)C(=O)c1ccc(-c2ccccc2)cc1.O=C(O)C(F)(F)F.O=C(O)C(F)(F)F` [Compound 3], the FICI with P. aeruginosa R590 [3] and in the series on A. baumannii R674 [1] (antibiotic Rifampicin) was below 0.5 throughout. In addition, the “MIC of antibiotic” value is 32 µg/mL and >64 µg/mL in the series on P. aeruginosa R590 [3]; 16 µg/mL with A. baumannii R674 [1] (antibiotic Rifampicin); above 64 µg/mL in the series with A. baumannii R674 [1] (antibiotic Tetracycline). In addition, the Potentiation factor is on record as 4 in the series on P. aeruginosa R590 [3] (setting [5]), below 4 in the series with P. aeruginosa R590 [3] (setting [6]), 4 in the series on A. baumannii R674 [1] (antibiotic Rifampicin) and below 2 with A. baumannii R674 [1] (antibiotic Tetracycline). The compound further yielded a 50% haemolytic concentration (HC50) with human RBCs above 1024 µg/mL. Also, the “MIC … of bacteria” value in the series with P. aeruginosa R590 [4] and with A. baumannii R674 [2] was above 512 µg/mL in each case.

Consider `NCCCN(CCCN)C(=O)CC(c1ccccc1)c1ccccc1.O=C(O)C(F)(F)F.O=C(O)C(F)(F)F` [Compound 4, N,N-bis((3-amino)propyl)3,3-diphenyl propanamide bis(trifluoroacetate)], for which the FICI was below 0.28 in the series on P. aeruginosa R590 [3] (setting [5]), below 0.5 in the series on P. aeruginosa R590 [3] (setting [6]), below 0.26 with A. baumannii R674 [1] (antibiotic Rifampicin) and below 0.5 with A. baumannii R674 [1] (antibiotic Tetracycline). Further, the “MIC of antibiotic” value in the series on P. aeruginosa R590 [3] (setting [5]) worked out at 4 µg/mL; in the series with P. aeruginosa R590 [3] (setting [6]), 64 µg/mL; in the series on A. baumannii R674 [1] (antibiotic Rifampicin) it was 1 µg/mL; with A. baumannii R674 [1] (antibiotic Tetracycline), 32 µg/mL. Also, the Potentiation factor in the series with P. aeruginosa R590 [3] (setting [5]) was 32; in the series with P. aeruginosa R590 [3] (setting [6]), 4; in the series on A. baumannii R674 [1] (antibiotic Rifampicin), 64; in the series with A. baumannii R674 [1] (antibiotic Tetracycline), 4. Also, in the series on human RBCs, the HC50 was above 1024 µg/mL. In addition, the “MIC … of bacteria” value in the series with P. aeruginosa R590 [4] and in the series with A. baumannii R674 [2] was above 512 µg/mL each time.

As to `CC(C)(C)OC(=O)NC(Cc1c[nH]c2ccccc12)C(=O)N(CCCN)CCCN.O=C(O)C(F)(F)F.O=C(O)C(F)(F)F.O=C(O)C(F)(F)F` (stereo not drawn) [Compound 5, N,N-bis((3-amino)propyl) 2′-(Boc-amino), 3′-indolo propanamide tris(trifluoroacetate)], the FICI in the series with P. aeruginosa R590 [3] (setting [5]) is listed as below 0.3125; in the series with A. baumannii R674 [1] (antibiotic Rifampicin), below 0.375. Further, the “MIC of antibiotic” value with P. aeruginosa R590 [3] (setting [5]) was 8 µg/mL; in the series on P. aeruginosa R590 [3] (setting [6]), above 64 µg/mL; in the series with A. baumannii R674 [1] (antibiotic Rifampicin) it was 8 µg/mL. Moreover, the Potentiation factor in the series with P. aeruginosa R590 [3] (setting [5]) is 16; in the series on P. aeruginosa R590 [3] (setting [6]) it was below 4; with A. baumannii R674 [1] (antibiotic Rifampicin), 8; in the series with A. baumannii R674 [1] (antibiotic Tetracycline) it was below 2. Moreover, the HC50 in the series on human RBCs is above 1024 µg/mL. Also, the “MIC … of bacteria” value with P. aeruginosa R590 [4] and in the series with A. baumannii R674 [2] was above 512 µg/mL throughout.

Turning to `NCCCN(CCCN)CC(=O)NC1C2CC3CC(C2)CC1C3.O=C(O)C(F)(F)F.O=C(O)C(F)(F)F.O=C(O)C(F)(F)F` (stereo not drawn) [Compound 6, N-(Adamantan-2-yl)-2-[N′,N′-{bis-(3-amino)propyl}amino] ethanamide tris(trifluoroacetate)], the FICI in the series with P. aeruginosa R590 [3] (setting [5]) and in the series on A. baumannii R674 [1] (antibiotic Rifampicin) was below 0.06 throughout. Also, the “MIC of antibiotic” value in the series on P. aeruginosa R590 [3] (setting [5]) is below 0.25 µg/mL; with P. aeruginosa R590 [3] (setting [6]), above 64 µg/mL; with A. baumannii R674 [1] (antibiotic Rifampicin) it was below 0.25 µg/mL; in the series with A. baumannii R674 [1] (antibiotic Tetracycline) it was above 64 µg/mL. The Potentiation factor is above 512 in the series on P. aeruginosa R590 [3] (setting [5]), below 4 with P. aeruginosa R590 [3] (setting [6]), above 256 in the series with A. baumannii R674 [1] (antibiotic Rifampicin) and below 2 in the series with A. baumannii R674 [1] (antibiotic Tetracycline). The compound further yielded an HC50 in the series with human RBCs above 1024 µg/mL. Also, the “MIC … of bacteria” value in the series on P. aeruginosa R590 [4] and in the series on A. baumannii R674 [2] was 512 µg/mL each time.

As for `NCCCC[C@H](N)C(=O)NCCCN(CCCNC(=O)[C@@H](N)CCCCN)C(=O)Cc1cccc2ccccc12` [Compound 7, N,N-bis-[(6-(^LLys)amido)propyl] naphthyl ethanamide tetrakis(trifluoroacetate)], the FICI is on record as below 0.28 in the series with P. aeruginosa R590 [3] (setting [5]), below 0.5 in the series on P. aeruginosa R590 [3] (setting [6]), below 0.25 with A. baumannii R674 [1] (antibiotic Rifampicin) and below 0.5 in the series on A. baumannii R674 [1] (antibiotic Tetracycline). Also, the “MIC of antibiotic” value is 4 µg/mL in the series on P. aeruginosa R590 [3] (setting [5]), 64 µg/mL with P. aeruginosa R590 [3] (setting [6]), 8 µg/mL in the series on A. baumannii R674 [1] (antibiotic Rifampicin) and 32 µg/mL in the series with A. baumannii R674 [1] (antibiotic Tetracycline). For the same compound, the Potentiation factor with P. aeruginosa R590 [3] (setting [5]) was 32; in the series with P. aeruginosa R590 [3] (setting [6]), 4; in the series with A. baumannii R674 [1] (antibiotic Rifampicin), 8; with A. baumannii R674 [1] (antibiotic Tetracycline), 4. Also, the HC50 in the series with human RBCs is above 1024 µg/mL. Further, the “MIC … of bacteria” value in the series on P. aeruginosa R590 [4] and with A. baumannii R674 [2] was above 512 µg/mL each time.

The record behind these values is US20220323383A1, “SMALL-MOLECULAR ADJUVANTS AND IMPLEMENTATIONS THEREOF” (JAWAHARLAL NEHRU CENTRE FOR ADVANCED SCIENTIFIC RESEARCH, priority 2019, published 2022).
